Measured values as given in patent US8497352B2, “Use of Wnt5-α peptide derivates for the treatment of melanoma and gastric cancer” (Wntresearch AB, priority 2008, dated 2013).
Where no end group is shown, it is not given here. The star is where a group is joined. For = O=C*

Experiments:
[1] = tested on: Wnt-5a protein expression; assay: Wnt-5a protein expression in HTB63 cells, Western blot; assay type: cell-based, human
Protocol: The cells were either directly lysed in 1× Laemmli buffer containing DTT and boiled for 10 min, or lysed in buffer containing 50 mM Tris-HCl (pH 7.5), 1% Triton X-100, 100 mM NaCl, 10 mM MgCl2, 20% glycerol, 1 mM Na3VO4, and protease inhibitors (20 μg/ml aprotinin, 1 μg/ml leupeptin, 2.5 mM benzamidine, and 2 mM pefabloc). Cell treated with lysis buffer were centrifuged at 15,000 rpm for 5 min at 4° C. The protein content in each sample was determined and adjusted to ensure equal loading of protein in each lane. Thereafter, 50 mM DTT and 5× concentrated Laemmli buffer was added and the samples boiled for 5 min. The samples were separated by SDS polyacrylamide gel electrophoresis and subsequently transferred to PVDF membranes. For immunoblotting the membranes were blocked in PBS supplemented with 0.2% Tween 20 and 1% non-fat milk for Wnt-5a or 3% non-fat milk as for all other antibodies for 1 h. Thereafter the membranes were incubated for 1 h at room temperature or overnight at 4° C. with the indicated primary Ab (1:25,000 for β-actin; 1:1,000 for Wnt-5a and 1:1,000 for TGF-β1) in 2% non-fat milk or 1.5% BSA. After extensive washing in PBS with 0.2% Tween, the membranes were incubated for 1 h with a horseradish peroxidase-conjugated secondary Ab in 2% non-fat milk or 1.5% BSA and again extensively washed. Finally, the Ab-antigen complexes were detected using enhanced chemiluminescence. […]

HTB63 melanoma cells [2] = assay: BD Matrigel invasion chamber assay, HTB63 cells; assay type: cell-based, human; conditions: 10 μM SB431542, 24 hours
Protocol: Cell invasion was analyzed using the BD Matrigel™ invasion chamber assay (BD Biosciences, Bedford, Mass.). Prior to the initiation of each experiment, the cells were detached with Versene and re-suspended as single cells in serum-free RPMI medium. As indicated, cells were pre-incubated with the Box5 peptide (100 μM) or control solvent for 40 min with continuous agitation. An aliquot of the cell suspension containing 25,000 cells and 100 μM Box5 or control solvent was then added to the upper transwell chamber, and the lower chamber was filled with serum-containing (10%) medium. The invasion chambers were shaken horizontally for 5 min to ensure even distribution of the cells in suspension and subsequently across the membrane surface. The cells were allowed to invade for the periods of time indicated at 37° C. in a humidified atmosphere of 5% CO2. The medium was discarded and cells were fixed in 4% paraformaldehyde for 10 min. The cells were stained with 0.5% crystal violet in 20% methanol for 10 min and the non-invading cells on the inner side of the membrane were removed with a cotton-tipped applicator. The membrane was cut out of the chamber using a scalpel blade and the stained cells on the lower chamber side of the membrane were counted.

HTB63 melanoma cells [3] = assay: Wound-healing assay (migration), HTB63 cells; assay type: cell-based, human; conditions: 10 μM SB431542, serum-free medium
Protocol: (§1) Cells were plated in 12 well plates and allowed to grow into a confluent layer in complete RPMI (for A2058 cells) or complete McCoy's 5A medium (for HTB63 cells). As indicated, cells were pre-incubated with the Box5 peptide (100 μM) or control solvent for 40 min with continuous agitation. A wound was then inflicted by making a scratch through the confluent layer of cells with a pipette tip. During the migration period of the assay, cells were incubated either in serum-free medium or in the case of HTB63 cells in their own serum-free-conditioned medium collected from cells cultured for 48 h and used within 2 days after collection. The exact conditions of each experiment are described above. To avoid loss of activity, cell medium was changed after 24 hours. A picture for each scratch was taken in the same area of cells at 0, 16, 24, 40 and 48 hours, and wound healing was measured as percentage of wound area closed. For each experimental condition wound healing was analysed in triplicate. All data were based on 3 to 8 separate experiments as indicated.

A2058 melanoma cells = assay: Wound-healing assay (migration), A2058 cells; assay type: cell-based, human; conditions: 50 μM Foxy5, 0, 16, 24, 40 and 48 hours
Protocol: as §1

breast cancer metastasis = conditions: mouse model; cited from earlier work
breast cancer cell = conditions: breast tumor cells lacking endogenous Wnt-5a; cited from earlier work

Molecule | Endogenous Wnt-5a protein expression in HTB63 cells ([1]; 10 μM SB431542, 4 days) | Endogenous Wnt-5a protein expression in HTB63 cells ([1]; 10 μM SB431542, 5 days) | Effect on migration of HTB63 cells in the invasion assay (HTB63 melanoma cells [2]) | Effect on migration of HTB63 cells (HTB63 melanoma cells [3]) | Effect on migration of A2058 cells (A2058 melanoma cells) | Breast cancer metastasis (breast cancer metastasis) | Signaling and inhibition of breast cancer cell migration (breast cancer cell)
NC(=O)c1ccc(-c2nc(-c3ccc4c(c3)OCO4)c(-c3ccccn3)[nH]2)cc1 [SB431542] | significantly reduced | almost abolished | stimulated | inhibited | – | – | –
Foxy5: Met-Asp-Gly-Cys-Glu-Leu hexapeptide formylated at the N-terminal Met, agonist of Wnt-5a signalling (For-MDGCEL) | – | – | – | – | promotes | inhibits | mimic the effects of Wnt-5a
